Data taken from patent publication US20260159536A1, “AKR1C3-ACTIVATED DNA ALKYLATING AGENT, AND MEDICAL APPLICATION THEREOF” (ASCENTAWITS PHARMACEUTICALS, LTD., priority 2021, published 2026).

Assays:
huH-1 = assay: Cytotoxicity on hepatocellular carcinoma cell line huH-1; assay type: cell-based
Protocol: If not otherwise specified, IC50 values were measured by the following experimental methods:
a) Cells were plated for 24 hours, and then the compounds acted singly. 99 μL of growth medium was supplemented per well, and then 1 μL of 200× compound was added, gently shaken to ensure uniform mixing, and then placed in a 37° C., 5% CO2 incubator.
b) The cell plate was placed in the incubator for 72 hours.
b) 100 μL of CTG reagent (CelltiterGlo kit) was added to each well, the plate was placed in a rapid oscillator and shaken for 2 minutes, and then placed at room temperature for 30 minutes away from light.
The IC50 was calculated using GraphPad Prism 8 software and the IC50 (half inhibitory concentration) of the compounds was obtained using the following non-linear fitting formula: […]
Using the same experimental methods as described above, Compounds A, B and C were further tested for cytotoxicity against different hepatocellular carcinoma (HCC) cell lines SNU354, SNU886, MHCC97H and huH-1, and the results were shown in Table 2 below: […]

[1] = test system: human lung cancer NCI-H460-Luc2 cells (intracranial); assay: In vivo pharmacodynamics, NCI-H460-Luc2 intracranial inoculation CDX model; set-up: species or system BALB/c nude mice; conditions: for Bioluminescence Value (Day 11) / T/C (%) / TGI (%): i.v. QWx3, Day 11
Protocol: The experiment was divided into groups of test drug Paclitaxel 20 mg/kg group, Compound A 2 mg/kg, 4 mg/kg and 8 mg/kg groups and 10% ethanol+10% polyoxyethylene castor oil+80% glucose injection DSW (pH 7.42) vehicle control group (Vehicle group), with 6 mice per group. […] The positive drug Paclitaxel 20 mg/kg group was administered by intraperitoneal injection and administered once a week for 3 weeks.
The pharmacodynamic analysis of each group in the human NCI-H460-luc intracranial inoculation model was performed based on the measured bioluminescence values on day 11 after administration, and the results were shown in Table 14.

[2] = test system: human liver cancer HepG2 cells; assay: In vivo pharmacodynamics, liver cancer HepG2 CDX model; set-up: species or system BALB/c nude mice; conditions: for Tumor volume (x ± S): in mm³ (unit assumed)
Protocol: Experiment Instruction: BALB/c nude mice were subcutaneously inoculated with human liver cancer HepG2 cells to establish a subcutaneous transplantation tumor model of human liver cancer. […] The efficacy was evaluated according to the relative tumor inhibition rate TGI (%), and the safety was evaluated according to the change in body weight and the death of the animals.

[3] = Plasma stability test, rat; assay type: in vitro ADME; conditions: 5 μM, 37° C.
Protocol: The pH of the plasma was checked and recorded. Note: a.
The final concentration of solvent was 0.5%.
The assay was performed in duplicate. […] The tubes were mixed by vortex for 5 minutes.

[4] = 1.25 mg/kg, QDx5, 2 days off, 2 weeks off, QDx5, i.p., Day 53
[5] = 2.5 mg/kg, QDx5, 2 days off, 2 weeks off, QDx5, i.p., Day 53
[6] = 5 mg/kg, QDx5, 2 days off, 2 weeks off, QDx5, i.p., Day 53
[7] = 5 mg/kg, QWx2, 1 week off, QWx2, i.v., Day 53
[8] = 10 mg/kg, QWx2, 1 week off, QWx2, i.v., Day 53

Compound: O=[N+]([O-])c1ccc(C(OP(=O)(N2CC2)N2CC2)C(F)(F)F)cc1Oc1ccc(-c2ccc(F)cc2)c(F)c1 (racemic) [Compound A]
- IC50 (huH-1; Homo sapiens, HuH-1): 306 nM
- ratio A/B (huH-1; IC50 ratio, huH-1): 1.19
- ratio A/C (huH-1; IC50 ratio, huH-1): 1.14
- Bioluminescence Value (Day 11) ([1]; 2 mg/kg): 7.62 ± 2.10 ×10^5 photon/second
- T/C (%) ([1]; 2 mg/kg): 0.24%
- TGI (%) ([1]; 2 mg/kg): 99.80%
- Bioluminescence Value (Day 11) ([1]; 4 mg/kg): 1.62 ± 0.30 ×10^5 photon/second
- T/C (%) ([1]; 4 mg/kg): 0.05%
- TGI (%) ([1]; 4 mg/kg): 100.03%
- Bioluminescence Value (Day 11) ([1]; 8 mg/kg): 1.78 ± 0.42 ×10^5 photon/second
- T/C (%) ([1]; 8 mg/kg): 0.06%
- TGI (%) ([1]; 8 mg/kg): 100.03%
- body weight change ([1]; 2, 4, 8 mg/kg i.v.): little change
- Tumor volume ([2]; 1.25 mg/kg i.p., Day 19): 189.54 mm^3
- Tumor volume ([2]; 1.25 mg/kg i.p., Day 22): 315.41 mm^3
- Tumor volume ([2]; 1.25 mg/kg i.p., Day 24): 351.74 mm^3
- Tumor volume ([2]; 1.25 mg/kg i.p., Day 27): 383.10 mm^3
- Tumor volume ([2]; 1.25 mg/kg i.p., Day 31): 366.64 mm^3
- Tumor volume ([2]; 1.25 mg/kg i.p., Day 36): 416.27 mm^3
- Tumor volume ([2]; 1.25 mg/kg i.p., Day 39): 586.80 mm^3
- Tumor volume ([2]; 1.25 mg/kg i.p., Day 42): 782.39 mm^3
- Tumor volume ([2]; 1.25 mg/kg i.p., Day 46): 886.97 mm^3
- Tumor volume ([2]; 1.25 mg/kg i.p., Day 49): 975.41 mm^3
- Tumor volume ([2]; 1.25 mg/kg i.p., Day 53): 1066.23 mm^3
- Relative tumor volume (x ± S) [2, 4]: 5.57 ± 1.26
- T/C (%) [2, 4]: 47.03%
- TGI (%) [2, 4]: 52.97%
- Tumor volume (x ± S) [2, 4]: 1066.23 ± 252.18
- Tumor volume ([2]; 2.5 mg/kg i.p., Day 19): 189.31 mm^3
- Tumor volume ([2]; 2.5 mg/kg i.p., Day 22): 292.03 mm^3
- Tumor volume ([2]; 2.5 mg/kg i.p., Day 24): 360.14 mm^3
- Tumor volume ([2]; 2.5 mg/kg i.p., Day 27): 373.23 mm^3
- Tumor volume ([2]; 2.5 mg/kg i.p., Day 31): 405.67 mm^3
- Tumor volume ([2]; 2.5 mg/kg i.p., Day 36): 392.90 mm^3
- Tumor volume ([2]; 2.5 mg/kg i.p., Day 39): 342.04 mm^3
- Tumor volume ([2]; 2.5 mg/kg i.p., Day 42): 399.84 mm^3
- Tumor volume ([2]; 2.5 mg/kg i.p., Day 46): 417.54 mm^3
- Tumor volume ([2]; 2.5 mg/kg i.p., Day 49): 456.60 mm^3
- Tumor volume ([2]; 2.5 mg/kg i.p., Day 53): 417.76 mm^3
- Relative tumor volume (x ± S) [2, 5]: 2.19 ± 0.52
- T/C (%) [2, 5]: 18.46%
- TGI (%) [2, 5]: 81.54%
- Tumor volume (x ± S) [2, 5]: 417.76 ± 105.16
- euthanasia owing to BWL>20% ([2]; 5 mg/kg QDx5, 2 days off, 2 weeks off, QDx5, i.p. (Group 7)): one mouse was euthanized
- death ([2]; 5 mg/kg QWx2, 1 week off, QWx2, i.v. (Group 3)): one mouse in this group suffered death
- Tumor volume ([2]; 5 mg/kg i.p., Day 19): 189.64 mm^3
- Tumor volume ([2]; 5 mg/kg i.p., Day 22): 259.29 mm^3
- Tumor volume ([2]; 5 mg/kg i.p., Day 24): 280.24 mm^3
- Tumor volume ([2]; 5 mg/kg i.p., Day 27): 286.22 mm^3
- Tumor volume ([2]; 5 mg/kg i.p., Day 31): 290.75 mm^3
- Tumor volume ([2]; 5 mg/kg i.p., Day 36): 293.88 mm^3
- Tumor volume ([2]; 5 mg/kg i.p., Day 39): 247.49 mm^3
- Tumor volume ([2]; 5 mg/kg i.p., Day 42): 224.58 mm^3
- Tumor volume ([2]; 5 mg/kg i.p., Day 46): 215.32 mm^3
- Tumor volume ([2]; 5 mg/kg i.p., Day 49): 234.89 mm^3
- Tumor volume ([2]; 5 mg/kg i.p., Day 53): 189.84 mm^3
- Tumor volume ([2]; 5 mg/kg i.v., Day 19): 191.48 mm^3
- Tumor volume ([2]; 5 mg/kg i.v., Day 22): 315.19 mm^3
- Tumor volume ([2]; 5 mg/kg i.v., Day 24): 360.12 mm^3
- Tumor volume ([2]; 5 mg/kg i.v., Day 27): 390.21 mm^3
- Tumor volume ([2]; 5 mg/kg i.v., Day 31): 373.82 mm^3
- Tumor volume ([2]; 5 mg/kg i.v., Day 36): 314.44 mm^3
- Tumor volume ([2]; 5 mg/kg i.v., Day 39): 283.08 mm^3
- Tumor volume ([2]; 5 mg/kg i.v., Day 42): 276.88 mm^3
- Tumor volume ([2]; 5 mg/kg i.v., Day 46): 233.11 mm^3
- Tumor volume ([2]; 5 mg/kg i.v., Day 49): 145.58 mm^3
- Tumor volume ([2]; 5 mg/kg i.v., Day 53): 136.44 mm^3
- Relative tumor volume (x ± S) [2, 6]: 0.99 ± 0.38
- T/C (%) [2, 6]: 8.33%
- TGI (%) [2, 6]: 91.67%
- Tumor volume (x ± S) [2, 6]: 189.84 ± 72.81
- Relative tumor volume (x ± S) [2, 7]: 0.70 ± 0.34
- T/C (%) [2, 7]: 5.92%
- TGI (%) [2, 7]: 94.08%
- Tumor volume (x ± S) [2, 7]: 136.44 ± 66.47
- weight loss or death ([2]; 10 mg/kg i.v. (Group 4) and 2.5 mg/kg i.p. (Group 6)): did not cause severe weight loss or death
- Tumor volume ([2]; 10 mg/kg i.v., Day 19): 191.97 mm^3
- Tumor volume ([2]; 10 mg/kg i.v., Day 22): 314.32 mm^3
- Tumor volume ([2]; 10 mg/kg i.v., Day 24): 375.81 mm^3
- Tumor volume ([2]; 10 mg/kg i.v., Day 27): 427.75 mm^3
- Tumor volume ([2]; 10 mg/kg i.v., Day 31): 386.68 mm^3
- Tumor volume ([2]; 10 mg/kg i.v., Day 36): 347.85 mm^3
- Tumor volume ([2]; 10 mg/kg i.v., Day 39): 312.31 mm^3
- Tumor volume ([2]; 10 mg/kg i.v., Day 42): 252.78 mm^3
- Tumor volume ([2]; 10 mg/kg i.v., Day 46): 197.45 mm^3
- Tumor volume ([2]; 10 mg/kg i.v., Day 49): 142.21 mm^3
- Tumor volume ([2]; 10 mg/kg i.v., Day 53): 88.20 mm^3
- Relative tumor volume (x ± S) [2, 8]: 0.45 ± 0.15
- T/C (%) [2, 8]: 3.83%
- TGI (%) [2, 8]: 96.17%
- Tumor volume (x ± S) [2, 8]: 88.20 ± 29.95
- complete cure ([2]; one mouse in each of Groups 3, 4, 7): completely cured
- Percentage remaining after 2 hours in plasma [3]: 33.03%
